Data reported in ChEMBL document CHEMBL1201862, “PubChem BioAssay data set” (2004).
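Protocol summary: plate cells (96-well), add compound at 5 concentrations, incubate 48 h, interpolate endpoints linearly. GI50 is the concentration that inhibits growth by half.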 Activity calls are given as the source filed them. Rule as the data show it: active = GI50 up to about 1.1 µM and inactive = higher.

Key:
Assay in all cases: NCI anticancer screen, dose series, 48 h
A549 = tested on: A549
CCRF-CEM = tested on: CCRF-CEM
DU-145 = tested on: DU-145
HCT-116 = tested on: HCT-116
HCT-15 = tested on: HCT-15
HOP-92 = tested on: HOP-92
Hs-578T = tested on: Hs-578T
MDA-MB-231 = tested on: MDA-MB-231
Malme-3M = tested on: Malme-3M
NCI-H522 = tested on: NCI-H522
NCI/ADR-RES = tested on: NCI/ADR-RES
OVCAR-5 = tested on: OVCAR-5
OVCAR-8 = tested on: OVCAR-8
PC-3 = tested on: PC-3
SF-539 = tested on: SF-539
SK-MEL-5 = tested on: SK-MEL-5
SN12C = tested on: SN12C
SW-620 = tested on: SW-620
T47D = tested on: T47D
TK-10 = tested on: TK-10

SMILES	GI50 (A549)	GI50 (CCRF-CEM)	GI50 (DU-145)	GI50 (HCT-116)	GI50 (HCT-15)	GI50 (HOP-92)	GI50 (Hs-578T)	GI50 (MDA-MB-231)	GI50 (Malme-3M)	GI50 (NCI-H522)	GI50 (NCI/ADR-RES)	GI50 (OVCAR-5)	GI50 (OVCAR-8)	GI50 (PC-3)	GI50 (SF-539)	GI50 (SK-MEL-5)	GI50 (SN12C)	GI50 (SW-620)	GI50 (T47D)	GI50 (TK-10)
CC1OC(c2ccc3c(c2O)C(=O)C2=C(C3=O)C3(O)C(=O)CC(C)(O)CC3(O)C=C2)CC(O)C1O (centres undefined)	26.3 µM (inactive)	2.05 µM (inactive)	15.6 µM (inactive)	5.26 µM (inactive)	14.5 µM	14.7 µM (inactive)	20.1 µM (inactive)	2.25 µM (inactive)	2.99 µM (inactive)	2.34 µM (inactive)	19.5 µM (inactive)	17 µM (inactive)	14.1 µM (inactive)	23.3 µM (inactive)	17.7 µM (inactive)	11 µM (inactive)	15 µM (inactive)	7.98 µM (inactive)	11.5 µM (inactive)	15.1 µM (inactive)
C=C1CCC(O)C/C1=C/C=C1\CCCC2(C)C1CCC2C(C)CCCC(C)C (centres undefined)	19.6 µM (inactive)	24.5 µM (inactive)	20.9 µM (inactive)	15.2 µM (inactive)	17.1 µM	17.7 µM (inactive)	17.6 µM (inactive)	19.9 µM (inactive)	18 µM (inactive)	17.5 µM (inactive)	18.2 µM (inactive)	20.3 µM (inactive)	18.1 µM (inactive)	18.8 µM (inactive)	20.1 µM (inactive)	19.4 µM (inactive)	16.6 µM (inactive)	16.7 µM (inactive)	19 µM (inactive)	12.3 µM (inactive)
CCOC(=O)[C@@]12NN=N[C@@H]1[C@H]1CO[C@H](c3ccccc3)N1C2=O	16.9 µM (inactive)	7.1 µM (inactive)	13.8 µM (inactive)	15 µM (inactive)	6.62 µM	1.64 µM (inactive)	4.6 µM (inactive)	12.2 µM (inactive)	13.3 µM (inactive)	3.01 µM (inactive)	22.1 µM (inactive)	14.2 µM (inactive)	5.68 µM (inactive)	10.1 µM (inactive)	11.2 µM (inactive)	11.1 µM (inactive)	11.1 µM (inactive)	7.67 µM (inactive)	5.22 µM (inactive)	16.8 µM (inactive)
O=C(O)c1ccc(CNCc2ccccc2)cc1	> 100 µM (inactive)	> 100 µM (inactive)	> 100 µM (inactive)	> 100 µM (inactive)	> 100 µM	> 100 µM (inactive)	> 100 µM (inactive)	> 100 µM (inactive)	> 100 µM (inactive)	> 100 µM (inactive)	> 100 µM (inactive)	> 100 µM (inactive)	> 100 µM (inactive)	> 100 µM (inactive)	> 100 µM (inactive)	> 100 µM (inactive)	> 100 µM (inactive)	> 100 µM (inactive)	> 100 µM (inactive)	> 100 µM (inactive)
COc1ccc(-c2nc(N)c(C#N)c3c2CCSc2ccc(C)cc2-3)cc1OC	12.3 µM (inactive)	4.12 µM (inactive)	14.8 µM (inactive)	10.8 µM (inactive)	9.4 µM	10.1 µM (inactive)	8.2 µM (inactive)	8.22 µM (inactive)	20.5 µM (inactive)	5.89 µM (inactive)	12.3 µM (inactive)	47.2 µM (inactive)	22.4 µM (inactive)	8.51 µM (inactive)	17.1 µM (inactive)	6.18 µM (inactive)	17.3 µM (inactive)	22.1 µM (inactive)	4.17 µM (inactive)	26.4 µM (inactive)
C/N=C(N)/N=C(\N)Nc1cc2ccccc2c2ccccc12	14.2 µM (inactive)	7.74 µM (inactive)	15.2 µM (inactive)	12.9 µM (inactive)	16.7 µM	14.9 µM (inactive)	16.9 µM (inactive)	13.3 µM (inactive)	15 µM (inactive)	13.1 µM (inactive)	20.6 µM (inactive)	17.5 µM (inactive)	16.8 µM (inactive)	15.8 µM (inactive)	15.2 µM (inactive)	16.5 µM (inactive)	12.5 µM (inactive)	16.6 µM (inactive)	14.8 µM (inactive)	13 µM (inactive)
COc1ccccc1OCC(=N/NC(=O)c1ccncc1)/N=C/c1ccncc1	> 100 µM (inactive)	> 100 µM (inactive)	> 100 µM (inactive)	> 100 µM (inactive)	> 100 µM	44 µM (inactive)	> 100 µM (inactive)	> 100 µM (inactive)	> 100 µM (inactive)	> 100 µM (inactive)	> 100 µM (inactive)	> 100 µM (inactive)	> 100 µM (inactive)	> 100 µM (inactive)	> 100 µM (inactive)	–	> 100 µM (inactive)	> 100 µM (inactive)	> 100 µM (inactive)	> 100 µM (inactive)
